One data set deals with L6 rat myoblast. Kind of data set: Sterol biosynthesis in L6 rat myoblast (14C acetic acid labeling). The data set is classed as cell-based. Particulars: 14C cholesterol from 14C acetic acid, 3 hours pre-incubation + 3 hours labeling. The protocol: C.) Protocol for Sterol Biosynthesis in L6 Rat Myoblast:
(§1) Cell Culture, Compounds Treatment and Cell Labeling:
L6 rat myoblast purchased from ATCC(CRL-1458) were grown in T-150 vented culture flasks and seeded on 12-well culture plates at a density of 60,000 cells per well. The cells were grown in DMEM, (Dulbecco's Modified Eagle Medium) (Gibco, #10567-014) containing 10% heat inactivated FBS (Fetal Bovine Serum) (Gibco # 10082-139) for 72 hours until reaching confluence. The cells were pre-incubated in media with compound and 0.2% DMSO (dimethyl sulfoxide) for 3 hours and then labeled by incubating in medium containing compound, 0.2% DMSO and 1 μCi/per mL of ^14C acetic acid for an additional 3 hours. […]
Lipid ester bonds were hydrolyzed by saponification of the lysates at 60° C. for 2 hours. […] The amount of ^14C cholesterol was quantified by scintillation counting in a Trilux 1450 plate reader (Wallac). The IC50 values were calculated from % inhibitions relative to negative controls vs. compound concentration on Microsoft excel 2000 data analysis wizard using a sigmoid inhibition curve model with formula: y=Bmax(1−(x^n/K^n+x^n))+y2 Where K is the IC50 for the inhibition curve, X is inhibitor concentration, Y is the response being inhibited and Bmax+Y2 is the limiting response as X approaches zero.

The target of data set [1] is T1, HMGCoA (3-Hydroxy-3-methylglutaryl CoA) Reductase (Rattus norvegicus, UniProt P51639).
T1 construct: Male Charles River Sprague-Dawley rats were fed with 2.5% cholestyramine in rat chow diets for 5 days before sacrificing; from tissue; host or cells: liver microsomes of male Sprague-Dawley rats fed cholestyramine
T1 sequence (P51639 1-887): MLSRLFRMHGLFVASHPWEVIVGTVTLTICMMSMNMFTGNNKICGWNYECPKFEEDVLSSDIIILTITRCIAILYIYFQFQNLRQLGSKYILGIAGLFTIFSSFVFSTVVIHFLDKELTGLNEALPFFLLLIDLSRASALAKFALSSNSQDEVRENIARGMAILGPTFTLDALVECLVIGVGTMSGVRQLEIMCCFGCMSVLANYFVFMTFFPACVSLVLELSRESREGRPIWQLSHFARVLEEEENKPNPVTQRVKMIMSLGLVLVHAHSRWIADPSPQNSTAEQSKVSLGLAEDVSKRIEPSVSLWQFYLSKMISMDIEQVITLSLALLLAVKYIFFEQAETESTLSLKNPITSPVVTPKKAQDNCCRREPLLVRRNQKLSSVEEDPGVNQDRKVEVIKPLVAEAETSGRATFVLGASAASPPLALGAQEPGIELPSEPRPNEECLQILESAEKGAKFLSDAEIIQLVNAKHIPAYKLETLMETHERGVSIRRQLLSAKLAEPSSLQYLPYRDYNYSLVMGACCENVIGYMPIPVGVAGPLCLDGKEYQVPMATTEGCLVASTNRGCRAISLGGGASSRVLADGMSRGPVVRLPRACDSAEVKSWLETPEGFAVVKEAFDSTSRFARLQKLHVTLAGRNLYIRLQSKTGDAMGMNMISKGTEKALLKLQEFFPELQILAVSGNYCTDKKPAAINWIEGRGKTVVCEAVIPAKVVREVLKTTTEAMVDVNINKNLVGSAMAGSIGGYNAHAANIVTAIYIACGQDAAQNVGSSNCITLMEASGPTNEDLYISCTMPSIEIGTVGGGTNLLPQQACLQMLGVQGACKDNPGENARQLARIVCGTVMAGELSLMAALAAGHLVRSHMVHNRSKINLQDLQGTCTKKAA
Kind of data set: HMGCoA reductase assay with rat liver microsomes (14C-HMGCoA). The data set is classed as biochemical. The settings on record: 45 min at 37° C. The source says:
(See, e.g., J. of Lipid Research 1998; 39: 75-84; Analytical Biochemistry, 1991; 196: 211-214; RR740-01077 Pharmacology 8, Nov., 1982) Accordingly, such compounds and formulations comprising such compounds are useful for treating, controlling or preventing inter alia hypercholesterolemia, hyperlipidemia, hypertriglyceridemia or atherosclerosis.
Rat Liver Microsomal Isolation Procedure:
Male Charles River Sprague-Dawley rats were fed with 2.5% cholestyramine in rat chow diets for 5 days before sacrificing. Livers were minced and homogenized in a sucrose homogenizing solution in an ice bath 10 times. Homogenates were diluted into a final volume of 200 mL, and centrifuged 15 min. with a Sorvall Centrifuge at 5° C., 10,000 rpm (12,000×G). The upper fat layer was removed and the supernatant decanted into fresh tubes. This step was repeated one more time before transferring the supernatant into ultracentrifuge tubes and centrifuged at 36,000 rpm (105,000×G) for an hour at 5° C. The resulting supernatant was discarded and the pellet was added to total of 15 mL 0.2 M KH2PO4. Pellets were homogenized gently by hand about 10 times. Samples were pooled and diluted into total of 60 mL buffer. The protein concentration of the homogenate was determined by the […] using a BCA kit from Pierce Chemical Company. 1 mL aliquots of microsomes were kept frozen in liquid nitrogen.
HMGCoA (3-Hydroxy-3-methylglutaryl CoA) Reductase Assay:
[3-^14C]-HMGCoA (57.0 mCi/mmol) was purchased from Amersham Biosciences, UK. HMGCoA, mevalonolactone, NADPH were purchased from Sigma Chemical Co. AG 1-8X resin was purchased from Bio-Rad Laboratory.
One μL of dimethyl sulfoxide (DMSO) or 1 μL of DMSO containing a test compound at a concentration sufficient to give a final assay concentration of between 0.1 nM to 1 mM was placed into each well of a Corning 96 well plate. […] Scintillation cocktail (Ultima-Flo-M) was added into each well and plates counted on a Trilux Microbeta Counter. The IC50 values were calculated with GraphPad software (Prism). […]
(Liver microsomes are vesicles of endoplasmic reticulum, rich in cytochrome P450 enzymes.)

A further data set deals with rat hepatocytes. Description: Sterol biosynthesis in rat hepatocytes (14C acetic acid labeling). It is filed as cell-based. Particulars: Hepatocyte, 14C cholesterol from 14C acetic acid, 4 hrs pre-incubation + 4 hrs labeling. The protocol: Protocol for Sterol Biosynthesis in Rat Hepatocytes:
as §1
Frozen rat hepatocytes purchased from XenoTech(cat# N400572) were seeded on 6-well collagen I coated plates at a density of […]. The cells were grown in DMEM medium (Gibco, #11054-020) containing 10% FBS and 10 mM HEPES(Gibco # 15630-080) for 24 hrs. The cells were pre-incubated with compounds for 4 hrs and then labeled by incubating in medium containing 1 uCi/per ml of ^14C acetic acid for an additional 4 hrs. After labeling, the cells were washed twice with 5 mM MOPS solution containing 150 mM NaCl and 1 mM EDTA and collected in the lysis buffer containing 10% KOH and 80%(vol.) ethanol.
Cholesterol Extraction and Data Analysis:
In order to separate labeled cholesterol from labeled non-cholesterol lipids, the cells lysates were subject to saponification at 60° C. for 2 hrs. The lysates were then combined with 0.5 volume of H2O and 2 volumes of hexane, followed by 30 minutes of vigorous shaking. After the separation of two phases, the upper-phase solution was collected and combined with 5 volumes of scintillation cocktail. The amount of ^14C cholesterol was quantified by liquid scintillation counting. The IC50 values were calculated with GraphPad software (Prism 3.03).

Structures can show the parent of a compound that is named as a salt.

What is called melting point is the temperature of the solid-liquid transition. A word on the IC50: it is the concentration at which inhibition is half-maximal.

As for `CC(C)n1c(CC[C@@H](O)C[C@@H](O)CC(=O)[O-])c(-c2ccc(F)cc2)c(-c2ccccc2)c1C(=O)Nc1ccccc1.[Na+]` [Example 1, (3R,5R)-7-[3-(4-fluoro-phenyl)-1-isopropyl-4-phenyl-5-phenylcarbamoyl-1H-pyrrol-2-yl]-3,5-dihydroxy-heptanoic Acid Sodium Salt], the melting point lay within 239 to 241 °C. In the data set on L6 rat myoblast, the IC50 was determined as 157 nM. Further, in data set [1], the IC50 was determined as 12 nM. Besides, the concentration for half-maximal inhibition (IC50) in the data set on rat hepatocytes was 0.74 nM.

As for `CC(C)n1c(CC[C@@H](O)C[C@@H](O)CC(=O)O)c(-c2ccc(F)cc2)c(-c2ccccc2)c1C(=O)Nc1ccc(F)cc1` [Example 6, (3R,5R)-7-[3-(4-Fluoro-phenyl)-5-(4-fluoro-phenylcarbamoyl)-1-isopropyl-4-phenyl-1H-pyrrol-2-yl]-3,5-dihydroxy-heptanoic Acid Sodium Salt], the figures for the IC50 (in data set [1]; with rat hepatocytes) were 4.1 nM and 0.23 nM, respectively.

`CC(C)n1c(CCC(O)CC(O)CC(=O)[O-])c(-c2ccc(F)cc2)c(-c2ccccc2)c1C(=O)Nc1ccc(C(=O)[O-])cn1.[Na+].[Na+]` (stereo not shown) [Example 25, 6-{[5-(6-Carboxy-3,5-dihydroxy-hexyl)-4-(4-fluoro-phenyl)-1-isopropyl-3-phenyl-1H-pyrrole-2-carbonyl]-amino}-nicotinic Acid di-sodium Salt] gave a melting point greater than 250 °C. The IC50 with L6 rat myoblast worked out at 2270 nM. Also, 0.61 nM corresponded to half-maximal inhibition in data set [1] (IC50). In addition, in the data set with rat hepatocytes, the IC50 came out at 0.19 nM.

For the origin of these results see US20050154042A1, “N-alkyl pyrroles as HMG-CoA reductase inhibitors” (priority 2003, published 2005).
